Reference: PubChem BioAssay (NCI)
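Grown in 96-well plates, cells were treated for 48 hours with each compound at five concentrations. Insufficient inhibition: endpoint recorded as highest concentration tested. At the TGI there is no net growth.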

What was measured:
Assay in all cases: growth of human tumour cells (NCI), 48 h
786-0 renal = system: 786-0 renal
EKVX NSCLC = system: EKVX NSCLC
HCT-116 colon = system: HCT-116 colon
HT29 colon = system: HT29 colon
IGROV1 ovarian = system: IGROV1 ovarian
MCF7 breast = system: MCF7 breast
MDA-MB-231 breast = system: MDA-MB-231 breast
MDA-MB-435 = system: MDA-MB-435
MOLT-4 leukemia = system: MOLT-4 leukemia
NCI/ADR-RES ovarian = system: NCI/ADR-RES ovarian
OVCAR-4 ovarian = system: OVCAR-4 ovarian
SK-MEL-2 melanoma = system: SK-MEL-2 melanoma
SK-MEL-28 melanoma = system: SK-MEL-28 melanoma
SK-OV-3 ovarian = system: SK-OV-3 ovarian
SN12C renal = system: SN12C renal
SR leukemia = system: SR leukemia
T-47D breast = system: T-47D breast
TK-10 renal = system: TK-10 renal
SNB-75 CNS = system: SNB-75 CNS

Structure (SMILES)	TGI (786-0 renal) [µM]	TGI (EKVX NSCLC) [µM]	TGI (HCT-116 colon) [µM]	TGI (HT29 colon) [µM]	TGI (IGROV1 ovarian) [µM]	TGI (MCF7 breast) [µM]	TGI (MDA-MB-231 breast) [µM]	TGI (MDA-MB-435) [µM]	TGI (MOLT-4 leukemia) [µM]	TGI (NCI/ADR-RES ovarian) [µM]	TGI (OVCAR-4 ovarian) [µM]	TGI (SK-MEL-2 melanoma) [µM]	TGI (SK-MEL-28 melanoma) [µM]	TGI (SK-OV-3 ovarian) [µM]	TGI (SN12C renal) [µM]	TGI (SR leukemia) [µM]	TGI (T-47D breast) [µM]	TGI (TK-10 renal) [µM]	TGI (SNB-75 CNS) [µM]
CCN1C(=O)c2ccccc2C1(O)c1ccc(Cl)cc1 (centres undefined)	> 100	> 100	> 100	> 100	> 100	> 100	> 100	> 100	> 100	> 100	> 100	83.6	> 100	> 100	> 100	> 100	> 100	> 100	–
CN(C)c1nc(=NCc2cccs2)ss1	> 10	> 10	> 10	> 10	> 10	> 10	> 10	> 10	> 6.29	> 10	> 10	–	> 10	> 10	> 10	> 4.9	> 10	> 10	> 10
COc1ccc2oc(=O)c(CC=C(C)C)c(O)c2c1C	> 100	> 100	> 100	> 100	> 100	> 100	> 100	> 100	> 100	> 100	–	> 100	> 100	> 100	> 100	> 100	> 100	> 100	> 100
N#Cc1c(C#N)c(-c2ccco2)n(-c2ccccc2)c1N	> 100	> 100	> 100	> 100	> 100	> 100	> 100	> 100	> 100	> 100	> 100	> 100	–	> 100	> 100	> 100	> 100	> 100	84.4
Cc1cc(C)n(-c2nc3ccccc3c(=O)n2-c2ccccc2)n1	> 100	–	> 100	> 100	> 100	> 100	> 100	> 100	> 100	> 100	> 100	> 100	> 100	> 100	> 100	> 100	> 100	> 100	> 100
CC(C)(C)OC(=O)NC(Cc1ccc(OCc2ccccc2)cn1)C(=O)NCc1ccccc1 (centres undefined)	> 100	99.3	83.6	> 100	> 100	97.9	75.1	48.1	42	48.7	–	35.7	> 100	51.6	64.6	30.5	56.5	> 100	78.5
CC1=C(C#N)C2C(=C(N)Oc3ccccc32)C(N)=N1 (centres undefined)	60.9	73.8	> 100	87.7	76.7	62.9	66.6	> 100	> 100	45.6	77.7	> 100	–	> 100	72.8	> 100	78.2	47.5	64.1
O=C(O)Cc1cccc2c1OC(c1ccccc1)C(C(=O)c1ccccc1)C2=O (centres undefined)	> 100	> 100	> 100	–	> 100	> 100	> 100	> 100	> 100	> 100	–	–	> 100	> 100	> 100	> 100	56.9	79.9	51.3
CCCN(CCC)c1cc2c(cc1F)c(=O)c(C(=O)O)cn2-c1ccc(N2CCN(C)CC2)cn1	36.8	34.2	28.9	30.5	27.6	53.3	27.1	38.9	43.4	35.9	43.3	–	36.5	28.5	46	35.9	38.8	23.1	28.3
COc1ccc(OC)c(-c2nc3ccccc3c(=O)[nH]2)c1	> 100	> 100	> 100	> 100	> 100	> 100	> 100	> 100	> 100	> 100	> 100	> 100	–	> 100	> 100	> 100	> 100	–	> 100
O=C1c2cscc2C(=O)C1(O)O	> 100	> 100	46.3	> 100	> 100	> 100	> 100	99.7	57.8	> 100	> 100	> 100	> 100	> 100	36.3	49.3	37.5	> 100	–
CC(=O)c1nc2ccccc2n1CC(=O)c1ccc(Cl)cc1	14.1	> 100	> 100	35.4	26.1	> 100	> 100	> 100	> 100	22.2	> 100	78.1	> 100	> 100	> 100	> 100	> 100	> 100	–
C[C@H]1CCCCC[C@@H]2CC(=O)CC2C(=O)CCC(=O)O1 (some centres undefined)	> 100	> 100	> 100	> 100	> 100	> 100	> 100	> 100	> 100	> 100	> 100	–	> 100	–	> 100	> 100	> 100	> 100	> 100
CC[C@H](C)C1=C(O)[N@+]2([O-])Oc3ccc(-c4c(O)c(O)c(-c5ccc(OC(C)=O)cc5)c(OC(C)=O)c4OC(C)=O)cc3O[C@]2([C@@H](C)CC)C(=O)N1O	> 50	> 50	17.8	> 50	18.6	> 50	> 50	> 50	35	> 50	31.5	> 50	> 50	> 50	> 50	33	> 50	> 50	–
O=C1/C(=C/c2ccccc2)N=C(c2ccccc2)N1C1Nc2cc3c(cc2S1)NC(N1C(=O)/C(=C/c2ccccc2)N=C1c1ccccc1)S3 (centres undefined)	> 100	> 100	> 100	> 100	> 100	> 100	> 100	47.1	88.2	> 100	> 100	77.5	> 100	> 100	–	> 100	> 100	> 100	–
Cn1c(=O)c2c(nc(N)n2C2OC(CO)C(O)C2O)n(C)c1=O (centres undefined)	> 100	> 100	> 100	> 100	> 100	> 100	> 100	> 100	> 100	> 100	> 100	–	> 100	> 100	> 100	> 100	> 100	> 100	> 100
Cc1cc(N(CCCCl)CCCCl)ccc1C=Nc1cccc(Cl)c1	43.2	–	> 100	27.7	35	49.9	29.3	36.2	21.2	33.4	26.4	36.5	41.5	61.7	37.1	24	24.1	27.5	24.7
Cc1cc(S(=O)(=O)NC2=NC(c3ccccc3)c3ccccc3N2)c(S)cc1Cl (centres undefined)	> 100	> 100	> 100	> 100	> 100	> 100	> 100	> 100	> 100	> 100	> 100	–	> 100	> 100	> 100	58.3	> 100	> 100	> 100
CN(C)/C=C(\C(=O)c1ccccc1)n1nc(-c2ccccc2)cc1-c1ccccc1	> 10	> 10	> 10	> 10	> 10	> 10	> 10	> 10	> 10	> 10	> 10	> 10	> 10	> 10	> 10	> 10	> 10	> 10	–
N#Cc1c(N)c2c(c(-c3ccccc3)c1-c1ccccc1)C(=O)N(NC(=O)c1ccccc1)C2=O	> 100	> 100	> 100	–	> 100	> 100	> 100	> 100	> 100	> 100	> 100	> 100	> 100	–	> 100	> 100	> 100	> 100	> 100
